Measurements taken from ChEMBL document CHEMBL1156596, “Overcoming undesirable CYP1A2 inhibition of pyridylnaphthalene-type aldosterone synthase inhibitors: influence of heteroaryl derivatization on potency and selectivity” (J Med Chem, 2008).

Key:
[1] = Terminal half life in Wistar rat at 5 mg/kg, po; type: ADME, organism-based; set-up: dose 5 mg/kg, route oral; details: in vivo
[2] = Tmax in Wistar rat at 5 mg/kg, po; type: ADME, organism-based; set-up: dose 5 mg/kg, route oral; details: in vivo
[3] = Plasma concentration in Wistar rat plasma at 5 mg/kg, po after 8 hrs; type: ADME, organism-based; set-up: dose 5 mg/kg, route oral
CYP1A2 = target: T1, CYP1A2 (Homo sapiens, UniProt P05177); assay: Inhibition of human recombinant CYP1A2 expressed in insect microsomes at 2 uM; type: ADME, Microsome
T1 sequence (P05177 whole entry): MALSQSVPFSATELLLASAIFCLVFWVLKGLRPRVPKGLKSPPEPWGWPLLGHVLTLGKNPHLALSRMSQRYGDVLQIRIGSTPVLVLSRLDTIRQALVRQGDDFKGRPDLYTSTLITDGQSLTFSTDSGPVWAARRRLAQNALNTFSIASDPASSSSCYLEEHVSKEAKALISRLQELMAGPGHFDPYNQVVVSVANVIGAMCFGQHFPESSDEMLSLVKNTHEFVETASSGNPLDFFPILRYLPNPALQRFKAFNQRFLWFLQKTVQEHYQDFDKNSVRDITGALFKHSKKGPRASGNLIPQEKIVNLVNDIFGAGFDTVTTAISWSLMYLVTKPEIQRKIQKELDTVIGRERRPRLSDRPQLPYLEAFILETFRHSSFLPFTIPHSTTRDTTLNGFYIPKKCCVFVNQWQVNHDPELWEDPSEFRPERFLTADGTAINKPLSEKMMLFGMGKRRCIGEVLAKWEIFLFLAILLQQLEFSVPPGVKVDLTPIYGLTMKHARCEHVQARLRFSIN

[4] = Plasma concentration in Wistar rat plasma at 5 mg/kg, po after 1 hr; type: ADME, organism-based; set-up: dose 5 mg/kg, route oral
[5] = Cmax in Wistar rat at 5 mg/kg, po; type: ADME, organism-based; set-up: dose 5 mg/kg, route oral; details: in vivo
[6] = Plasma concentration in Wistar rat plasma at 5 mg/kg, po after 6 hrs; type: ADME, organism-based; set-up: dose 5 mg/kg, route oral
in vivo = details: Wistar, rat, po, 5 mg/kg
[7] = Plasma concentration in Wistar rat plasma at 5 mg/kg, po after 4 hrs; type: ADME, organism-based; set-up: dose 5 mg/kg, route oral
[8] = Plasma concentration in Wistar rat plasma at 5 mg/kg, po after 2 hrs; type: ADME, organism-based; set-up: dose 5 mg/kg, route oral
Cytochrome P450 2D6 = Cytochrome P450 2D6 (Homo sapiens, UniProt P10635); assay: Inhibition of human recombinant CYP2D6 expressed in insect microsomes; type: ADME, Microsome
[9] = target: T2, Cytochrome P450 11B1, mitochondrial (Homo sapiens, UniProt P15538)
T2 sequence (P15538 whole entry): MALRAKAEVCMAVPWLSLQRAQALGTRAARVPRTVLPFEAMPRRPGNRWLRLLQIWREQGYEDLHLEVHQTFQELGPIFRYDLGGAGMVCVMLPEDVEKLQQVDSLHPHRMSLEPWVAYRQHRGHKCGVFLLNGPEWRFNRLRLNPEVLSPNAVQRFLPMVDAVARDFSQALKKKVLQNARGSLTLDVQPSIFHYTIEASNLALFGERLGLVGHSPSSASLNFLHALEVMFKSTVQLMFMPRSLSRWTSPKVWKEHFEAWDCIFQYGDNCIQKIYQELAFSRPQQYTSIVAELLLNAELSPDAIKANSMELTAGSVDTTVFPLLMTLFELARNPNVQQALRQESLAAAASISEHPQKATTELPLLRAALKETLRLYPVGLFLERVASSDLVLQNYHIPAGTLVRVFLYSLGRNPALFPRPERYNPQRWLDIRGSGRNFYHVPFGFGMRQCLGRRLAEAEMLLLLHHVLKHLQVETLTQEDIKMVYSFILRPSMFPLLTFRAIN

Cytochrome P450 3A4 = Cytochrome P450 3A4 (Homo sapiens, UniProt P08684); assay: Inhibition of human recombinant CYP3A4 expressed in insect microsomes; type: ADME, Microsome
Homo sapiens = organism: Homo sapiens; assay: Selectivity ratio of IC50 for human CYP11B1 to IC50 for human CYP11B2
[10] = target: T3, Cytochrome P450 11B2, mitochondrial (Homo sapiens, UniProt P19099)
T3 sequence (P19099 whole entry): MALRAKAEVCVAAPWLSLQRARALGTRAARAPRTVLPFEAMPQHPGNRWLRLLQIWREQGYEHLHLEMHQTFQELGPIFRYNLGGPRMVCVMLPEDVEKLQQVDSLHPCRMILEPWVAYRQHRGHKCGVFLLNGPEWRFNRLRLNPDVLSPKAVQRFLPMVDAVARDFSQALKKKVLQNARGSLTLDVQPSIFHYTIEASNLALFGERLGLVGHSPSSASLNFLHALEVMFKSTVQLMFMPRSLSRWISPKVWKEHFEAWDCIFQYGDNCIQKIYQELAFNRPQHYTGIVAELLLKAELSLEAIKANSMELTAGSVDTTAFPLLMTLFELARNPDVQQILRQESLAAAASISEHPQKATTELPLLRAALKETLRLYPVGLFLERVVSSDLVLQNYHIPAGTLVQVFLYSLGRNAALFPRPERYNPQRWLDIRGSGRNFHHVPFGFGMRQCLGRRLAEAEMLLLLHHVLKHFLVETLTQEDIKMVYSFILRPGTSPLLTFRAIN

CYP19 (aromatase) = target: T4, CYP19 (aromatase) (Homo sapiens, UniProt P11511); assay: Inhibition of human placental CYP19 at 500 nM
T4 sequence (P11511 whole entry): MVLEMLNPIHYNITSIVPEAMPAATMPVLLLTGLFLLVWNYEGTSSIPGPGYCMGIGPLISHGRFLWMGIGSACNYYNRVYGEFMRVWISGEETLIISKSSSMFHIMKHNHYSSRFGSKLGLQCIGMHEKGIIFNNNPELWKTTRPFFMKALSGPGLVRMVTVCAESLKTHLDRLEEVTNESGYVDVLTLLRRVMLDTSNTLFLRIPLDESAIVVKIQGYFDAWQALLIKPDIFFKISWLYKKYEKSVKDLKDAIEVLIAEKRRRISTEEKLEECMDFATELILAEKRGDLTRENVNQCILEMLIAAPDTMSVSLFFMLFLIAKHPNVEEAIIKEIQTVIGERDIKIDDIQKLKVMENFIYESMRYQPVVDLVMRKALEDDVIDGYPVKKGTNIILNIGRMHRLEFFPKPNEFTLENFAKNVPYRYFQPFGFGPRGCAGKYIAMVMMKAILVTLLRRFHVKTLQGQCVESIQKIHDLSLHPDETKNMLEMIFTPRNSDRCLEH

Cytochrome P450 2C9 = Cytochrome P450 2C9 (Homo sapiens, UniProt P11712); assay: Inhibition of human recombinant CYP2C9 expressed in insect microsomes; type: ADME, Microsome
CYP17 = target: T5, CYP17 (Homo sapiens, UniProt P05093); assay: Inhibition of human recombinant CYP17 expressed in Escherichia coli at 2 uM
T5 sequence (P05093 whole entry): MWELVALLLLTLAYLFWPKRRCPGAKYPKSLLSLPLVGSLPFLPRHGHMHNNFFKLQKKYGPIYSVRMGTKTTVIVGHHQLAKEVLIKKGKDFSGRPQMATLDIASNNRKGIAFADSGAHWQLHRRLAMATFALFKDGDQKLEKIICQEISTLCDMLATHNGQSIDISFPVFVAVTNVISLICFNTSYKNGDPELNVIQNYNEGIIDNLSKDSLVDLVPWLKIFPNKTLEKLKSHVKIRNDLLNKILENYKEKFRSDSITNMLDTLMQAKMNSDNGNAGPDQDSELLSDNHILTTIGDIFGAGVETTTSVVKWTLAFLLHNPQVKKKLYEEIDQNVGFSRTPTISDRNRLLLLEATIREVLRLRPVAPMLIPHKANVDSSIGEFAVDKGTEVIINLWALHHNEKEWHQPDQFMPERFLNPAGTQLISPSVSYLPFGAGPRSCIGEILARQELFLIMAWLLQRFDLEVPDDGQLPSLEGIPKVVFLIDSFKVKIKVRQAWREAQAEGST

Cytochrome P450 2B6 = target: T6, Cytochrome P450 2B6 (Homo sapiens, UniProt P20813); assay: Inhibition of human recombinant CYP2B6 expressed in insect microsomes; type: ADME, Microsome
T6 sequence (P20813 whole entry): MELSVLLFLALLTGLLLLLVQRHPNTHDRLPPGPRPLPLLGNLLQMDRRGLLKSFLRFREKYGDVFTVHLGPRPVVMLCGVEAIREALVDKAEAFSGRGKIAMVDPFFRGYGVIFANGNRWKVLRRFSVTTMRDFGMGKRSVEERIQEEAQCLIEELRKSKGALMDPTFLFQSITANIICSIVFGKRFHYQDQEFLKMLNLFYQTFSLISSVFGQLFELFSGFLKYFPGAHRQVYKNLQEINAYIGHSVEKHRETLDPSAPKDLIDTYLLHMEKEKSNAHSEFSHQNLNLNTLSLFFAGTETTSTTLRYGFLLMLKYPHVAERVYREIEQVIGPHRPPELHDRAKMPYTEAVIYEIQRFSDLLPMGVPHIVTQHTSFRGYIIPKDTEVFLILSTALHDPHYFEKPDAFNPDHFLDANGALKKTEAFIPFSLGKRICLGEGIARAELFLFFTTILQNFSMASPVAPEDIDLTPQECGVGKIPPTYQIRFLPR

Cytochrome P450 2C19 = Cytochrome P450 2C19 (Homo sapiens, UniProt P33261); assay: Inhibition of human recombinant CYP2C19 expressed in insect microsomes; type: ADME, Microsome
Cytochrome P450 1A2 = target: T7, Cytochrome P450 1A2 (Homo sapiens, UniProt P05177)
T7 sequence (P05177 whole entry): T1 sequence (P05177 whole entry)

CYP11B1 = target: T8, CYP11B1 (Homo sapiens, UniProt P15538); assay: in vitro; details: hamster V79 MZh cells expressing human CYP11B1
T8 sequence (P15538 whole entry): T2 sequence (P15538 whole entry)

[11] = target: T3, Cytochrome P450 11B2, mitochondrial; assay: Inhibition of human CYP11B2 expressed in hamster V79 MZh cells at 500 nM; type: cell-based; details: V79MZh

Chain of Cytochrome P450 3A4 (P08684 whole entry): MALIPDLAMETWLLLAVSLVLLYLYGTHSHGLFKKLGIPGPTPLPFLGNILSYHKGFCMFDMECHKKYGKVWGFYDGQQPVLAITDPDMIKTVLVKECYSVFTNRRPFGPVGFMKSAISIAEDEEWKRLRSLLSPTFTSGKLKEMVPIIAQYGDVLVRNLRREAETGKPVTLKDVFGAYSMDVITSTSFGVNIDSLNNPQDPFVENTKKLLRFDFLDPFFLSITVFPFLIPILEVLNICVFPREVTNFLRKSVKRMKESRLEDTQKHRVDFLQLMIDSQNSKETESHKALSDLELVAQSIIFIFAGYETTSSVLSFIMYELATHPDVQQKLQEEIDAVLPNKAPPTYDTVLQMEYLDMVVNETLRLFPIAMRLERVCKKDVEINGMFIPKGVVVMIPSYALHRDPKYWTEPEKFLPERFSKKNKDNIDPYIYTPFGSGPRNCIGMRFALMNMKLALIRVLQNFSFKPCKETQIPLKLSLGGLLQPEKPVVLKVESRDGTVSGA
Chain of Cytochrome P450 2C9 (P11712 whole entry): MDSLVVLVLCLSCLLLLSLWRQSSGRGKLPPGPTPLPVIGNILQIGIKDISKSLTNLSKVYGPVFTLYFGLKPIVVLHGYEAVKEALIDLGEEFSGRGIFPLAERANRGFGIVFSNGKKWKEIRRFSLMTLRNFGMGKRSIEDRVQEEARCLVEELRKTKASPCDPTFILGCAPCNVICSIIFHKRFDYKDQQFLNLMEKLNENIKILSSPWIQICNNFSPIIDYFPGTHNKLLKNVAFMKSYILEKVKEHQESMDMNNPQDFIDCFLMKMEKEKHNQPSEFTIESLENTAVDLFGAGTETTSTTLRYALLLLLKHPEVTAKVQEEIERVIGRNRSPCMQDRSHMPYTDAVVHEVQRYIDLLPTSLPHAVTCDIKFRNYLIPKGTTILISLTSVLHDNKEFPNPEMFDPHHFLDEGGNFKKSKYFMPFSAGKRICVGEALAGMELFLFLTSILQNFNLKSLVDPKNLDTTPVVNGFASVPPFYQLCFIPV
Chain of Cytochrome P450 2C19 (P33261 whole entry): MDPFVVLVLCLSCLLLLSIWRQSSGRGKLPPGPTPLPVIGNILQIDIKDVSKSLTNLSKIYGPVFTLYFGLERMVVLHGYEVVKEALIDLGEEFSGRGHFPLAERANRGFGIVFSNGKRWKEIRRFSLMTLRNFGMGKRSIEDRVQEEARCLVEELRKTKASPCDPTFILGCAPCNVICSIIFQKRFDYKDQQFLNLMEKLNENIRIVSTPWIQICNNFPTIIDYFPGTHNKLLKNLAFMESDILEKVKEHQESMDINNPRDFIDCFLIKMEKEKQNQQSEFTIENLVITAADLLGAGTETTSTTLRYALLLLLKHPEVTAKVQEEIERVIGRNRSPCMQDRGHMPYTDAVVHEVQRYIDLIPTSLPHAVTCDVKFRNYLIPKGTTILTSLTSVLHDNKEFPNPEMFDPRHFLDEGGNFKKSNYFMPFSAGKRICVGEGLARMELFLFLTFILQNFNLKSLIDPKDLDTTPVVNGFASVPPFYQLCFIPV
Chain of Cytochrome P450 2D6 (P10635 whole entry): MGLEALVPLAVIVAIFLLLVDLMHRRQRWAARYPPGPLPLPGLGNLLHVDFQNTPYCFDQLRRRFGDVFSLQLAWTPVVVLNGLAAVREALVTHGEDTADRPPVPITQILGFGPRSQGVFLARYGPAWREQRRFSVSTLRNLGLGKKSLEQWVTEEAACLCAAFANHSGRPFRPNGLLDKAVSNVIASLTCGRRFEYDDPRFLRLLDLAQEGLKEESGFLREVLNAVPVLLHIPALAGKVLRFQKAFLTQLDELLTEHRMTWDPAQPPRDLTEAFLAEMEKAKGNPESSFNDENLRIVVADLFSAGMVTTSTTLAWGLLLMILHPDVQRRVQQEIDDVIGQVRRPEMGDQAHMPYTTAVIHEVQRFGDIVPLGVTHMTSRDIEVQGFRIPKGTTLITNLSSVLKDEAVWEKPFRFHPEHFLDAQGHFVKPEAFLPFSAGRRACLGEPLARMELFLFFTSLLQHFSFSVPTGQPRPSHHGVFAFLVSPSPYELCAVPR

Row | Compound | inhibition at 2 µM (CYP1A2) | Cmax [5] | IC50 (Cytochrome P450 2D6) | IC50 [9] | IC50 (Cytochrome P450 3A4) | Ratio IC50 (Homo sapiens) | IC50 [10] | inhibition at 0.5 µM (CYP19 (aromatase)) | IC50 (Cytochrome P450 2C9) | inhibition at 2 µM (CYP17) | IC50 (Cytochrome P450 2B6) | IC50 (Cytochrome P450 2C19) | IC50 (Cytochrome P450 1A2) | further results
1 | COc1ccc2cc(-c3cccnc3)ccc2c1 | 98% | 222 ng/mL | – | – | – | – | – | – | – | – | – | – | – | half-life [1]: 5.4 h; Tmax [2]: 1 h; concentration at 8 h [3]: 59.2 ng/mL; concentration at 1 h [4]: 84.5 ng/mL; concentration at 6 h [6]: 133 ng/mL; AUC(0-inf) (in vivo; plasma): 1540 ng·h/mL; concentration at 4 h [7]: 124 ng/mL; concentration at 2 h [8]: 145 ng/mL
2 | COc1cncc(-c2ccc3cc(OC)ccc3c2)c1 | 91% | – | > 25000 nM | 238 nM | 1910 nM | 57 | 4.2 nM | 14% | 1890 nM | 41% | > 25000 nM | > 25000 nM | 83 nM | –
3 | COc1ccc2cc(-c3cncc(C(C)=O)c3)ccc2c1 | 80% | – | > 200000 nM | 255 nM | 9070 nM | 121 | 2.1 nM | < 5% | > 200000 nM | 36% | > 50000 nM | > 200000 nM | 488 nM | –
4 | N#Cc1ccc(C2CCCc3cncn32)cc1 (configuration not stated) [FADROZOLE] | 8% | 454 ng/mL | – | – | – | – | – | – | – | – | – | – | – | half-life [1]: 2.2 h; Tmax [2]: 1 h; AUC(0-inf) (in vivo; in vivo): 3580 ng·h/mL
5 | COc1ccc2cc(-c3cnccc3N)ccc2c1 | 58% | < 1.5 ng/mL | 11100 nM | 1520 nM | 21100 nM | 117 | 13 nM | 47% | 49000 nM | 42% | > 50000 nM | 45800 nM | 1420 nM | –
6 | N#Cc1ccc2cc(-c3cccnc3)ccc2c1 | 97% | – | – | – | – | 239 | 2.9 nM | – | – | – | – | – | – | IC50 (CYP11B1): 691 nM
7 | COc1ccc2cc(-c3cncc(C(=O)O)c3)ccc2c1 | – | – | – | – | – | – | – | – | – | – | – | – | – | inhibition at 0.5 µM [11]: 7%
